Results as given in ChEMBL document CHEMBL5131388, “Discovery of novel brain-penetrant GluN2B NMDAR antagonists via pharmacophore-merging strategy as anti-stroke therapeutic agents” (Eur J Med Chem, 2022).

Assays:
[1] = Tmax in Sprague-Dawley rat at 2.5 mg/kg, iv measured up to 24 hrs by LC/MS-MS analysis; type: ADME, organism-based; settings: in vivo
[2] = Neuroprotective activity against NMDA-induced neurotoxicity in Sprague-Dawley rat hippocampal neurons assessed as increase in cell viability at 0.1 uM incubated for 18 hrs followed by NMDA addition and measured after 0.5 hrs by MTT assay; type: functional, Hippocampal neurone; settings: time 18.5 hrs
[3] = Neuroprotective activity against NMDA-induced neurotoxicity in Sprague-Dawley rat hippocampal neurons assessed as increase in cell viability at 1 uM incubated for 18 hrs followed by NMDA addition and measured after 0.5 hrs by MTT assay; type: functional, Hippocampal neurone; settings: time 18.5 hrs
[4] = Neuroprotective activity against NMDA-induced neurotoxicity in Sprague-Dawley rat hippocampal neurons assessed as increase in cell viability at 10 uM incubated for 18 hrs followed by NMDA addition and measured after 0.5 hrs by MTT assay; type: functional, Hippocampal neurone; settings: time 18.5 hrs
Glutamate NMDA receptor = experiment: Displacement of [3H] ifenprodil from Wistar rat glutamate NMDA receptor incubated for 2 hrs by scintillation counting method; type: protein-complex assay
Rattus norvegicus [5] = experiment: Neuroprotective activity in Sprague-Dawley rat model of middle cerebral artery occlusion-induced ischemia-reperfusion injury assessed as decrease in neurological score at 20 mg/kg, po measured 24 hrs post injury by TTC staining based histological analysis; type: functional
Rattus norvegicus [6] = experiment: Neuroprotective activity in Sprague-Dawley rat model of middle cerebral artery occlusion-induced ischemia-reperfusion injury assessed as decrease in cerebral infarction rate at 20 mg/kg, po measured 24 hrs post injury by TTC staining based histological analysis; type: functional; parameters: scale not given: the % may be the effect or the level left
[7] = Tmax in Sprague-Dawley rat at 10 mg/kg, po measured up to 24 hrs by LC/MS-MS analysis; type: ADME, organism-based; settings: in vivo
[8] = Cmax in Sprague-Dawley rat at 2.5 mg/kg, iv measured up to 24 hrs by LC/MS-MS analysis; type: ADME, organism-based; parameters: dose 2.5 mg/kg, time < 24 hrs, route iv; settings: in vivo
[9] = Cmax in Sprague-Dawley rat at 10 mg/kg, po measured up to 24 hrs by LC/MS-MS analysis; type: ADME, organism-based; parameters: dose 10 mg/kg, time < 24 hrs, route po; settings: in vivo
[10] = AUClast in Sprague-Dawley rat at 2.5 mg/kg, iv measured up to 24 hrs by LC/MS-MS analysis; type: ADME, organism-based; parameters: dose 2.5 mg/kg, time < 24 hrs, route iv; settings: in vivo
[11] = AUClast in Sprague-Dawley rat at 10 mg/kg, po measured up to 24 hrs by LC/MS-MS analysis; type: ADME, organism-based; parameters: dose 10 mg/kg, time < 24 hrs, route po; settings: in vivo
[12] = AUCinf in Sprague-Dawley rat at 2.5 mg/kg, iv measured up to 24 hrs by LC/MS-MS analysis; type: ADME, organism-based; parameters: dose 2.5 mg/kg, time < 24 hrs, route iv; settings: in vivo
[13] = AUCinf in Sprague-Dawley rat at 10 mg/kg, po measured up to 24 hrs by LC/MS-MS analysis; type: ADME, organism-based; parameters: time < 24 hrs, dose 10 mg/kg, route po; settings: in vivo
[14] = MRTinf in Sprague-Dawley rat at 2.5 mg/kg, iv measured up to 24 hrs by LC/MS-MS analysis; type: ADME, organism-based; settings: in vivo
[15] = MRTinf in Sprague-Dawley rat at 10 mg/kg, po measured up to 24 hrs by LC/MS-MS analysis; type: ADME, organism-based; settings: in vivo
[16] = Clearance in Sprague-Dawley rat at 2.5 mg/kg, iv measured up to 24 hrs by LC/MS-MS analysis; type: ADME, organism-based; settings: in vivo
[17] = Half life in Sprague-Dawley rat at 2.5 mg/kg, iv measured up to 24 hrs by LC/MS-MS analysis; type: ADME, organism-based; settings: in vivo
[18] = Half life in Sprague-Dawley rat at 10 mg/kg, po measured up to 24 hrs by LC/MS-MS analysis; type: ADME, organism-based; settings: in vivo
[19] = Bioavailability in Sprague-Dawley rat at 2.5 mg/kg, iv measured up to 24 hrs by LC/MS-MS analysis; type: ADME, organism-based; settings: in vivo
[20] = Ratio AUClast in Sprague-Dawley rat brain to plasma at 2.5 mg/kg, iv measured up to 24 hrs by LC/MS-MS analysis; type: ADME, organism-based; settings: brain and plasma
[21] = Ratio AUClast in Sprague-Dawley rat brain to plasma at 10 mg/kg, po measured up to 24 hrs by LC/MS-MS analysis; type: ADME, organism-based; settings: brain and plasma
[22] = Toxicity in Sprague-Dawley rat assessed as animal death at 300 mg/kg, po administered as repeated dose once daily for 2 weeks; type: organism-based; settings: in vivo, 336 h
[23] = Toxicity in Sprague-Dawley rat assessed as change in liver/brain index at 150 to 300 mg/kg, po administered as repeated dose once daily for 2 weeks; type: organism-based; settings: in vivo, 336 h, dose 150-300 mg/kg
[24] = Toxicity in Sprague-Dawley rat assessed as change in kidney/brain index at 150 to 300 mg/kg, po administered as repeated dose once daily for 2 weeks; type: organism-based; settings: in vivo, 336 h, dose 150-300 mg/kg
[25] = Toxicity in Sprague-Dawley rat assessed as change in spleen/brain index at 150 to 300 mg/kg, po administered as repeated dose once daily for 2 weeks; type: organism-based; settings: in vivo, 336 h, dose 150-300 mg/kg
[26] = Toxicity in Sprague-Dawley rat assessed as change in white blood cell count at 150 to 300 mg/kg, po administered as repeated dose once daily for 2 weeks; type: organism-based; settings: in vivo, 336 h, dose 150-300 mg/kg
[27] = Toxicity in Sprague-Dawley rat assessed as change in ALT level at 150 to 300 mg/kg, po administered as repeated dose once daily for 2 weeks; type: organism-based; settings: in vivo, 336 h, dose 150-300 mg/kg
[28] = Toxicity in Sprague-Dawley rat assessed as change in AST level at 150 to 300 mg/kg, po administered as repeated dose once daily for 2 weeks; type: organism-based; settings: in vivo, 336 h, dose 150-300 mg/kg
[29] = Toxicity in Sprague-Dawley rat assessed as change in blood pressure at 150 to 300 mg/kg, po administered as repeated dose once daily for 2 weeks; type: organism-based; settings: in vivo, 336 h, dose 150-300 mg/kg
[30] = Toxicity in Sprague-Dawley rat assessed as change in blood glucose level at 150 to 300 mg/kg, po administered as repeated dose once daily for 2 weeks; type: organism-based; settings: in vivo, 336 h, dose 150-300 mg/kg
[31] = Toxicity in Sprague-Dawley rat assessed as body weight loss at 300 mg/kg, po administered as repeated dose once daily for 2 weeks; type: organism-based; settings: in vivo, 336 h
[32] = Toxicity in Sprague-Dawley rat assessed as increase in AST level at 300 mg/kg, po administered as repeated dose once daily for 2 weeks; type: organism-based; settings: in vivo, 336 h
[33] = biological target: Glutamate NMDA receptor; GRIN1/GRIN2A (Homo sapiens) (UniProt Q05586+Q12879); experiment: Antagonist activity at GluN1/GluN2A NMDA receptor (unknown origin) transfected in HEK293 cells assessed as inhibition of glycine induced current response at 10 uM in presence of L-glutamate by patch-clamp method; type: cell-based
[34] = biological target: Glutamate NMDA receptor; GRIN1/GRIN2B (Homo sapiens) (UniProt Q05586+Q13224); experiment: Antagonist activity at GluN1/GluN2B NMDA receptor (unknown origin) transfected in HEK293 cells assessed as inhibition of glycine induced current response at 10 uM in presence of L-glutamate by patch-clamp method; type: cell-based; settings: filed as antagonist
[35] = biological target: Ionotropic glutamate receptor NMDA 1/2C (Homo sapiens) (UniProt Q05586+Q14957); experiment: Antagonist activity at GluN1/GluN2C NMDA receptor (unknown origin) transfected in HEK293 cells assessed as inhibition of glycine induced current response at 10 uM in presence of L-glutamate by patch-clamp method; type: cell-based
[36] = biological target: Ionotropic glutamate receptor NMDA 1/2D (Homo sapiens) (UniProt Q05586+O15399); experiment: Antagonist activity at GluN1/GluN2D NMDA receptor (unknown origin) transfected in HEK293 cells assessed as inhibition of glycine induced current response at 10 uM in presence of L-glutamate by patch-clamp method; type: cell-based

Compound O=C1OC(CCCN2CCN(Cc3ccc(C(F)(F)F)cc3)CC2)c2ccccc21 (racemic) [listing 1 of 2 here] has a Tmax [1] of 1.02 min, an Activity ([2]; 0.1 µM) of 60.14% and an Activity ([3]; 1 µM) of 78.45%. For the same compound, the Activity ([4]; 10 µM) was 89.8%, the Ki (Glutamate NMDA receptor) was 3.26 nM and the Activity (Rattus norvegicus [5]) was 1.88. For the same compound, the Activity (Rattus norvegicus [6]) was 16.08%, the Tmax [7] was 1.5 h and the Cmax [8] was 2360 ng/mL. For the same compound, the Cmax [9] was 972 ng/mL, the AUC(0-t) at 24 h [10] was 1450 ng·h/mL and the AUC(0-t) at 24 h [11] was 3670 ng·h/mL. For the same compound, the AUC(0-inf) [12] was 1580 ng·h/mL, the AUC(0-inf) [13] was 4070 ng·h/mL and the MRT inf [14] was 1.68 h. For the same compound, the MRT inf [15] was 3.25 h, the clearance [16] was 29.5 mL/min/kg and the half-life [17] was 1.73 h. For the same compound, the half-life [18] was 1.88 h, the bioavailability [19] was 63.4% and the Kp at 24 h [20] was 0.71. The Kp at 24 h [21] was 0.85, the Activity [22] was “Non-Toxic” and the Activity [23] was “Non-Toxic”. For the same compound, the Activity [24] was “Non-Toxic”, the Activity [25] was “Non-Toxic” and the Activity [26] was “Non-Toxic”. The Activity [27] was “Non-Toxic”, the Activity [28] was “Non-Toxic” and the Activity [29] was “Non-Toxic”. For the same compound, the Activity [30] was “Non-Toxic”, the Activity [31] was “Toxic” and the Activity [32] was “Toxic”.
Compound O=C1OC(CCCN2CCN(Cc3ccccc3)CC2)c2ccccc21 (stereo unspecified) has an Activity [2] of 67.64%, an Activity [3] of 79.85% and an Activity [4] of 81.91%. The Ki (Glutamate NMDA receptor) was 13.6 nM.
For O=C1OC(CCCN2CCN(Cc3ccc(C(F)(F)F)cc3)CC2)c2ccccc21 (single isomer, unassigned; enantiomer B), the inhibition [33] was 25.9%, the inhibition [34] was 81% and the inhibition [35] was 16.2%. For the same compound, the inhibition [36] was 20.3%.
With CCCCC1OC(=O)c2ccccc21 (stereo not drawn) [RAC-3-N-BUTYLPHTHALIDE] the Activity [2] was 55.71%, the Activity [3] was 57.94% and the Activity [4] was 73.45%. The Ki (Glutamate NMDA receptor) was 14.8 nM, the Activity (Rattus norvegicus [5]) was 2.13 and the Activity (Rattus norvegicus [6]) was 18.81%.
In the case of O=C1OC(CCCN2CCN(Cc3ccc([N+](=O)[O-])cc3)CC2)c2ccccc21 (stereo unspecified), the Activity [2] is reported as 66.55%, the Activity [3] is reported as 79.64% and the Activity [4] is reported as 88.35%. It also gave a Ki (Glutamate NMDA receptor) of 4.55 nM, an Activity (Rattus norvegicus [5]) of 1.75 and an Activity (Rattus norvegicus [6]) of 14.53%.
In the case of O=C1OC(CCCN2CCN(Cc3ccc(C(F)(F)F)cc3)CC2)c2ccccc21 (racemic) [listing 2 of 2 here], the inhibition [33] is reported as 26.6%, the inhibition [34] is reported as 75.4% and the inhibition [35] is reported as 12%. It also gave an inhibition [36] of 10.3%.
Work on O=C1OC(CCCN2CCN(Cc3ccc(C(F)(F)F)cc3)CC2)c2ccccc21 (single isomer, unassigned; enantiomer A) yielded an inhibition [33] of 23.4%, an inhibition [34] of 71.9% and an inhibition [35] of 14.9%. It also gave an inhibition [36] of 16.7%.
For CC(C(O)c1ccc(O)cc1)N1CCC(Cc2ccccc2)CC1 (stereo unspecified) [IFENPRODIL], the Activity [2] was 65.93%, the Activity [3] was 76.98% and the Activity [4] was 85.83%. The Activity (Rattus norvegicus [5]) was 1.75, the inhibition [33] was 13.1% and the inhibition [34] was 135%. The inhibition [35] was 28.8%, the inhibition [36] was 18.1% and the Activity (Rattus norvegicus [6]) was 14.35%.
In the case of O=C1OC(CCN2CCCC2)c2ccccc21 (stereo unspecified), the Activity [2] is reported as 57.21%, the Activity [3] is reported as 66.34% and the Activity [4] is reported as 70.66%.
For O=C1OC(CCCN2CCN(Cc3cccc([N+](=O)[O-])c3)CC2)c2ccccc21 (stereo unspecified), the Activity [2] was 53.23%, the Activity [3] was 69.03% and the Activity [4] was 73.28%.
